Tests used:
[1] = test system: fed rats; test: glyburide effect on plasma glucose in fed rats; type: in vivo, rat; details: for glucose −30 min / glucose 1 h / glucose 3 h / glucose 6 h / glucose −24 h: fed animals; for glucose −30 min: 30 min before application (baseline); for glucose 1 h: 1 h after application; for glucose 3 h: 3 h after application; for glucose 6 h: 6 h after application; for glucose −24 h: 24 h before application (baseline)
Experimental: 30 min before the application of the compound (FIG. 1, Table 1).

[2] = test system: adult male Lewis rats fasted for 24 h; test: glyburide induced hypoglycemia in fasted rats, plasma glucose; type: in vivo, rat; details: for glucose −30 min / glucose 1 h / glucose 3 h / glucose 6 h / glucose −24 h: fasted animals; for glucose −30 min: 30 min before application (baseline); for glucose 1 h: 1 h after application; for glucose 3 h: 3 h after application; for glucose 6 h: 6 h after application; for glucose −24 h: 24 h before application (baseline)
Experimental: Food restriction for 24 h reduced plasma glucose concentration in all treatment groups from about 8 mmol/l to approximately 6 mmol/l. 30 min before the application of the compound (FIG. 1, Table 1).

[3] = test system: patients; details: patients with hypoglycemia receiving octreotide; cited from earlier work
[4] = Glyburide 30 mg/kg p.o. + 10 μg/kg s.c.
[5] = Glyburide 30 mg/kg p.o. + 30 μg/kg s.c.

Row | Molecule | glucose 1 h [1, 4] | glucose 3 h [1, 4] | glucose 6 h [1, 4] | glucose −24 h [1, 4] | glucose 1 h [1, 5] | glucose 3 h [1, 5] | glucose 6 h [1, 5] | glucose −24 h [1, 5] | glucose −30 min [2, 4] | glucose 1 h [2, 4] | glucose 3 h [2, 4] | glucose 6 h [2, 4] | glucose −24 h [2, 4] | glucose −30 min [2, 5] | glucose 1 h [2, 5] | glucose 3 h [2, 5] | glucose 6 h [2, 5] | glucose −24 h [2, 5] | further results
1 | COc1ccc(Cl)cc1C(=O)NCCc1ccc(S(=O)(=O)NC(=O)NC2CCCCC2)cc1 [Glyburide] | – | – | – | – | – | – | – | – | – | – | – | – | – | – | – | – | – | – | glucose −30 min ([1]; Glyburide 30 mg/kg p.o. alone): 8.72 ± 0.14 mmol/L; glucose 1 h ([1]; Glyburide 30 mg/kg p.o. alone): 7.42 ± 0.18 mmol/L; glucose 3 h ([1]; Glyburide 30 mg/kg p.o. alone): 5.33 ± 0.16 mmol/L; glucose 6 h ([1]; Glyburide 30 mg/kg p.o. alone): 6.27 ± 0.16 mmol/L; glucose −24 h ([1]; Glyburide 30 mg/kg p.o. alone): 8.65 ± 0.11 mmol/L; hypoglycemic effect ([1]; fed rats, glyburide alone): not very pronounced; glucose −30 min ([2]; Glyburide 30 mg/kg p.o. alone): 6.07 ± 0.39 mmol/L; glucose 1 h ([2]; Glyburide 30 mg/kg p.o. alone): 5.48 ± 0.15 mmol/L; glucose 3 h ([2]; Glyburide 30 mg/kg p.o. alone): 4.17 ± 0.16 mmol/L; glucose 6 h ([2]; Glyburide 30 mg/kg p.o. alone): 3.53 ± 0.13 mmol/L; glucose −24 h ([2]; Glyburide 30 mg/kg p.o. alone): 7.87 ± 0.34 mmol/L; minimum plasma glucose level ([2]; fasted rats, Glyburide 30 mg/kg p.o. alone, 6 h after the application): 3.5 mmol/L
2 | C[C@@H](O)[C@@H]1NC(=O)[C@H](CCCCN)NC(=O)[C@@H](Cc2c[nH]c3ccccc23)NC(=O)[C@H](Cc2ccccc2)NC(=O)[C@@H](NC(=O)[C@H](N)Cc2ccccc2)CSSC[C@@H](C(=O)N[C@H](CO)[C@@H](C)O)NC1=O [octreotide] | 7.27 ± 0.15 mmol/L | 5.80 ± 0.24 mmol/L | 6.00 ± 0.44 mmol/L | 8.17 ± 0.38 mmol/L | 7.48 ± 0.25 mmol/L | 5.63 ± 0.24 mmol/L | 6.10 ± 0.43 mmol/L | 8.07 + 0.43 mmol/L | 5.75 ± 0.21 mmol/L | 4.27 ± 0.07 mmol/L | 4.28 ± 0.14 mmol/L | 4.28 ± 0.23 mmol/L | 8.53 ± 0.27 mmol/L | 6.43 ± 0.49 mmol/L | 4.22 ± 0.14 mmol/L | 5.83 ± 0.28 mmol/L | 4.83 ± 0.24 mmol/L | 8.63 ± 0.19 mmol/L | serum glucose level versus controls [3]: higher than that in controls; time within which the effect on serum glucose waned [3]: ≤ 8 h; prevention of the glyburide induced hypoglycemia ([2]; fasted rats, Glyburide 30 mg/kg p.o. + 10 or 30 μg/kg s.c., after 1 h): not effective; effect on glucose levels in glyburide treated rats ([2]; fasted rats, highest dose (30 μg/kg s.c.), after 3 and 6 h): only a small tendency to increase glucose levels
3 | cyclo[{(4-(NH2—C2H4—NH—CO—O—)Pro}-Phg-DTrp-Lys-Tyr(4-Bzl)-Phe] [pasireotide] | 13.48 ± 0.65 mmol/L | 12.42 ± 0.39 mmol/L | 6.85 ± 0.23 mmol/L | 8.65 ± 0.18 mmol/L | 13.47 ± 0.91 mmol/L | 13.13 ± 0.69 mmol/L | 9.12 ± 0.47 mmol/L | 8.85 ± 0.25 mmol/L | 5.88 ± 0.16 mmol/L | 7.00 ± 0.42 mmol/L | 6.22 ± 0.42 mmol/L | 6.48 ± 0.52 mmol/L | 8.07 ± 0.45 mmol/L | 6.10 ± 0.23 mmol/L | 6.98 ± 0.59 mmol/L | 7.55 ± 0.47 mmol/L | 7.58 ± 0.47 mmol/L | 7.93 ± 0.52 mmol/L | glucose −30 min [1, 4]: 8.53 ± 0.34 mmol/L; glucose −30 min [1, 5]: 8.10 ± 0.29 mmol/L; effect on plasma glucose ([1]; fed rats pretreated with glyburide): significant but transit effect; effect on plasma glucose in glyburide treated rats ([2]; fasted rats, Glyburide 30 mg/kg p.o. + 10 or 30 μg/kg s.c., 1, 3 and 6 h after the application): plasma glucose increased to levels of untreated fasted rats or above

Source: US9314508B2, “Use of somatostatin analogs in control of hypoglycemia” (priority 2008, dated 2016)
